From patent US20100120839A1, “PYRAZOLES USEFUL IN THE TREATMENT OF INFLAMMATION” (Biolipox AB, priority 2007, published 2010)
Read-outs that look alike come from different tables or passages of the source.

Target: T1, purified human 15-lipoxygenase (Homo sapiens, UniProt P16050)
T1 sequence (P16050 1-662): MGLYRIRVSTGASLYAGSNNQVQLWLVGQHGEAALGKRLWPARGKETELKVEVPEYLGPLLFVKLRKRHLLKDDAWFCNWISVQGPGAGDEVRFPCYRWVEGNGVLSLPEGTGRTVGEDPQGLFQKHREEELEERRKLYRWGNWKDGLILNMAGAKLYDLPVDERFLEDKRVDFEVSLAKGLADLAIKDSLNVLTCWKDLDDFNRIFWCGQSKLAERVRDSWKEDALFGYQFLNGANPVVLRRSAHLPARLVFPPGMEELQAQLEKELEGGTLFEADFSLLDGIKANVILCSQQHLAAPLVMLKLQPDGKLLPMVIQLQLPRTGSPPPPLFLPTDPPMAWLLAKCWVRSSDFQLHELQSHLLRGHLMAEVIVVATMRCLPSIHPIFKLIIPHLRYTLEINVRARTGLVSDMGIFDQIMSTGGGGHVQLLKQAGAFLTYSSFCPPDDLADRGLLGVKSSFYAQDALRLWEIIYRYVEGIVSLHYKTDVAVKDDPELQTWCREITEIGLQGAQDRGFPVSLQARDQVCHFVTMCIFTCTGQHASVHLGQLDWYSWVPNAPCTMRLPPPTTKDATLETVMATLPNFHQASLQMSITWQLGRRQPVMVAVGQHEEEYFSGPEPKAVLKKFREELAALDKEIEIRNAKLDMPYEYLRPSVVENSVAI
Assay: 15-lipoxygenase inhibition assay (arachidonic acid oxidation, reverse phase HPLC readout)
Assay type: biochemical
Description: The assay employed takes advantage of the ability of lipoxygenases to oxidize polyunsaturated fatty acids, containing a 1,4-cis-pentadiene configuration, to their corresponding hydroperoxy or hydroxyl derivatives. In this particular assay, the lipoxygenase was a purified human 15-lipoxygenase and the fatty acid was arachidonic acid. The assay is performed at room temperature (20-22° C.) and the following are added to each well in a 96-well microtiter plate:
a) 35 μL phosphate buffered saline (PBS) (pH 7.4); b) inhibitor (i.e. compound) or vehicle (0.5 μl DMSO); c) 10 μL of a 10× concentrated solution of 15-lipoxygenase in PBS. […] The plate is then incubated for 10 minutes at room temperature; e) the enzymatic reaction is terminated by the addition of 100 μl methanol; and f) the amount of 15-hydroperoxy-eicosatetraenoic acid or 15-hydroxy-eicosatetraenoic acid is measured by reverse phase HPLC.

[1] = arachidonic acid substrate, room temperature (20-22° C.), PBS pH 7.4, read-out: IC50

c1ccc2oc(-c3cc[nH]n3)nc2c1 [Example 1, 2-(Pyrazol-3-yl)-benzoxazole]
IC50: 0.224 µM

Clc1cc(-c2nc3ccccc3o2)n[nH]1 [Example 11, 2-(5-Chloropyrazol-3-yl)benzoxazole]
IC50 [1]: 0.033 µM

Fc1cccc2nc(-c3cc(Cl)[nH]n3)oc12 [Example 15, 2-(5-Chloropyrazol-3-yl)-7-fluorobenzoxazole]
IC50 [1]: 0.041 µM

Fc1cccc2oc(-c3cc(Cl)[nH]n3)nc12 [Example 17, 2-(5-Chloropyrazol-3-yl)-4-fluorobenzoxazole]
IC50 [1]: 0.049 µM

Fc1cccc2oc(-c3n[nH]c(Cl)c3Cl)nc12 [Example 18, 2-(4,5-Dichloropyrazol-3-yl)-4-fluorobenzoxazole]
IC50 [1]: 0.035 µM

Clc1[nH]nc(-c2nc3cccnc3o2)c1Cl [Example 32, 2-(4,5-Dichloropyrazol-3-yl)oxazolo[5,4-b]pyridine]
IC50 [1]: 0.127 µM

FC(F)(F)c1cnc2oc(-c3n[nH]c(Cl)c3Cl)nc2c1 [Example 33, 2-(4,5-Dichloropyrazol-3-yl)-6-(trifluoromethyl)-oxazolo[5,4-b]pyridine]
IC50 [1]: 0.085 µM
